Measurements taken from patent US4778811A, “Pharmaceutical compositions of 2-methyl-thiazolo[4,5-c]quinoline” (EGIS Gyogyszergyar, priority 1985, dated 1988).

Legend:
[1] = Shuttle-box, acquisition of two-way conditioned avoidance reflex; format: in vivo
Experimental: The acquisition of a two-way conditioned avoidance reflex (CAR) was analyzed in the shuttle-box during 5 consecutive days. […] It consists of six boxes, each is separated inside by a barrier with a small gate in the middle. […] They were given 100 trials per day. One trial consisted of 15 s intertrial interval, followed by 15 s CS. The last 5 s of CS overlapped the first s of US. At each learning session the number of CAR and intersignal reactions (IR) was automatically counted and evaluated by multiway analysis of variance (ANOVA).

[2] = Effect on basal metabolism (O2 consumption); format: in vivo, rats; conditions: urethane 0.6 g/kg i.p., 30° C.
Experimental: The O2 consumption of rats was measured by the method of Issekutz and Issekutz (1952) at constant temperature (30° C.).
O2 consumption of the animals was expressed in ml/h and calculated for body surface, and given finally in ml/h/dm^2. Following injection of urethane and the basal O2 consumption was measured during 30 minutes. This was followed by the injection of the test substance and O2 consumption was registered immediately afterwards. The difference between the highest O2 consumption and the basal value was expressed in percent.
O2 consumption of the animals was calculated according to the following equation: [formula] V=2000 cm^3 P=pressure fall (mmHg)
T=period of measurement (h)
O2 consumption was calculated for body surface and expressed as ml/dm^2 /h. Body surface was calculated on the basis of the "Diack" formula: […]

[3] = Measurement of motility in the shuttle-box; format: in vivo; conditions: 30-minute observation
Experimental: The apparatus described in the shuttle-box test is used also for investigating the motility of animals. In case of motility experiment all the stimuli are switched off and the animals are allowed to move freely from one compartment of the box to the other. […] Significancy is calculated by Student's test for two means.

[4] = Screening test: one session conditioning / unconditioned reflex, glass cylinder jump; format: in vivo, rats
Experimental: Was elaborated for studying learning and retention of rats during one session conditioning.
During conditioning rats are trained to jump onto the top of glass cylinder by the electric foot-shock (110 V). The escape reaction (unconditioned reflex, UR) is paired with a bell as conditioned stimulus. The criterion of learning is that conditioned reflex (CR) should be elicited 10 times with 10 s intervals without reinforcement. Retention of CR is taken positive when 24 h following the experiment CR can be elicited. In these experiments animals are distributed into 4 categories on the basis of their learning ability.

malaria = conditions: cited from earlier work
benzodiazepine receptor = assay: Benzodiazepine (BZD) receptor binding, 3H-diazepam displacement, crude cortical membrane preparation
Experimental: For the studies of benzodiazepine /BZD) receptor binding crude cortical membrane preparation was used. […] ^3 H-diazepam was incubated with the membrane for 1 hr at 0° C. in TRIS-citrate buffer, pH 6.8. Specific binding was determined in the presence of 10 μM diazepam. In displacement studies chlordiazepoxide was used as control drug.

[5] = Central nervous depressant effect

## Cc1nc2cnc3ccccc3c2s1.Cl [A compound, 2-methyl-thiazolo[4,5-c]quinoline-hydrochloride]
[1]; 5 mg/kg s.c., day 1
  acquisition of conditioned reflex, number of positive responses (F): 17.8
  number of intersignal reactions (IR): 9.5
  number of negative responses (-f): 14.4
[1]; 5 mg/kg s.c., day 2
  acquisition of conditioned reflex, number of positive responses (F): 29.6
  number of intersignal reactions (IR): 8.9
  number of negative responses (-f): 23.0
[1]; 5 mg/kg s.c., day 3
  acquisition of conditioned reflex, number of positive responses (F): 24.3
  number of intersignal reactions (IR): 3.2
  number of negative responses (-f): 24.6
[1]; 5 mg/kg s.c., day 4
  acquisition of conditioned reflex, number of positive responses (F): 23.0
  number of intersignal reactions (IR): 2.9
  number of negative responses (-f): 25.4
[1]; 5 mg/kg s.c., day 5
  acquisition of conditioned reflex, number of positive responses (F): 29.4
  number of intersignal reactions (IR): 2.3
  number of negative responses (-f): 27.5
[1]; 10 mg/kg s.c., day 1
  acquisition of conditioned reflex, number of positive responses (F): 12.0
  number of intersignal reactions (IR): 8.9
  number of negative responses (-f): 70.4
[1]; 10 mg/kg s.c., day 2
  acquisition of conditioned reflex, number of positive responses (F): 14.7
  number of intersignal reactions (IR): 7.3
  number of negative responses (-f): 55.3
[1]; 10 mg/kg s.c., day 3
  acquisition of conditioned reflex, number of positive responses (F): 7.2
  number of intersignal reactions (IR): 2.7
  number of negative responses (-f): 58.2
[1]; 10 mg/kg s.c., day 4
  acquisition of conditioned reflex, number of positive responses (F): 5.5
  number of intersignal reactions (IR): 2.1
  number of negative responses (-f): 66.8
[1]; 10 mg/kg s.c., day 5
  acquisition of conditioned reflex, number of positive responses (F): 7.3
  number of intersignal reactions (IR): 2.1
  number of negative responses (-f): 68.2
[1]; 25 mg/kg s.c., day 1
  acquisition of conditioned reflex, number of positive responses (F): 7.0
  number of intersignal reactions (IR): 10.7
  number of negative responses (-f): 83.6
[1]; 25 mg/kg s.c., day 2
  acquisition of conditioned reflex, number of positive responses (F): 6.6
  number of intersignal reactions (IR): 5.7
  number of negative responses (-f): 85.1
[1]; 25 mg/kg s.c., day 3
  acquisition of conditioned reflex, number of positive responses (F): 2.6
  number of intersignal reactions (IR): 4.4
  number of negative responses (-f): 94.3
[1]; 25 mg/kg s.c., day 4
  acquisition of conditioned reflex, number of positive responses (F): 1.6
  number of intersignal reactions (IR): 3.8
  number of negative responses (-f): 93.8
[1]; 25 mg/kg s.c., day 5
  acquisition of conditioned reflex, number of positive responses (F): 3.1
  number of intersignal reactions (IR): 4.2
  number of negative responses (-f): 95.0
[2]
  rate of metabolism / O2 consumption: slightly
[3]
  motility (spontaneous crossings of the gate): slight motility decreasing effect

## Cc1nc2cnc3ccccc3c2s1 [Formula I, 2-methyl-thiazolo[4,5-c]quinoline]
Spasmolytic effect
  spasmolytic effect: void of any spasmolytic effect
[4]; even in high doses
  escape of animals in the one session unconditioned reflex test: enables the escape of animals
[4]; rat, in vivo
  inhibition of non-specific activation mechanisms: does not inhibit non-specific activation mechanisms
malaria
  effect against malaria: completely ineffective against malaria
Benzodiazepine receptor
  binding by benzodiazepine receptors: not bound by benzodiazepine receptors
Benzodiazepine receptor; crude cortical membrane, 1 hr, 0° C., TRIS-citrate buffer, pH 6.8
  displacement of 3H-diazepam specific binding: even in high concentration did not alter the specific binding of ^3 H-diazepam
[5]
  central nervous depressant effect: significantly stronger central depressant effect than benzodiazepines
